This note sets out measurements from US10266526B2, “Substituted 1,2,3-triazoles as SMYD inhibitors for treating cancer” (EPIZYME, INC., priority 2014, dated 2019).

Usually IC50 stands for the concentration that gives 50% inhibition.

Structures can show the parent of a compound that is named as a salt.

Test [1] has as its target T1, SMYD3 (Homo sapiens (Human), UniProt Q9H7B4). The test is described as follows: SMYD3 cell assay (Trimethyl-MEKK2 In-Cell Western in 293T/17 cells transfected with MEKK2-flag and SMYD3). The format is cell-based. From the text: Trimethyl-MEKK2-in-Cell Western Assay
MEM/Glutamax medium, Optimem Reduced Serum medium, penicillin-streptomycin, 0.05% trypsin and 1×D-PBS were purchased from Life Technologies, Grand Island, N.Y., USA. PBS-10× was purchased from Ambion, Life Technologies, Grand Island, N.Y., USA. PBS with Tween 20 (PBST (10×)) was purchased from KPL, Gaithersburg, Md., USA. Tet System FBS-approved FBS US Source was purchased from Clontech, Mountain View, Calif., USA. Odyssey blocking buffer, 800CW goat anti-rabbit IgG (H+L) antibody, 680CW Goat anti-mouse IgG (H+L) and Licor Odyssey infrared scanner were purchased from Licor Biosciences, Lincoln, Nebr., USA. Tri-methyl-Lysine [A260]-MEKK2 antibody, MEKK2 and SMYD3 plasmids were made at Epizyme. Anti-flag monoclonal mouse antibody was purchased from Sigma, St. Louis, Mo., USA. Methanol was purchased from VWR, Franklin, Mass., USA. 10% Tween 20 was purchased from KPL, Inc., Gaithersburg, Md., USA. Fugene was purchased from Promega, Madison, Wis., USA. The Biotek ELx405 was purchased from BioTek, Winooski, Vt., USA. The multidrop combi was purchased from Thermo Scientific, Waltham, Mass., USA.
Cell Treatment, in Cell Western (ICW) for Detection of Trimethyl-Lysine-MEKK2 and MEKK2.
Plasmids were prepared for delivery to cells by first mixing 1350 μL Opti-MEM with Fugene (81 μL) in a sterile Eppendorf and incubated for five minutes at room temperature (RT). […] Entire volume of Opti-MEM/Fugene mixture was then added to a microfuge tube containing DNA plasmid, mixed and then incubated ×15 minutes at RT. […] Medium was then removed, and cells were washed once with PBS in the flask. Trypsin 0.05% (3 mL) was added and cells incubated for three minutes. Room temperature MEM+10% Tet system FBS was added and cells were mixed gently, and counted using the Vi-cell. Cells were seeded at 100,000 cells/mL in 50 μL MEM/10% Tet FBS/Pen/Strep to a 384 well black/clear poly-D-lysine coated plate containing test agent diluted in DMSO. The final top concentration of test compound was 40 μM. […] Plates were incubated ×30 minutes at RT in low-airflow area, followed by incubation at 37° C. under 5% CO2 for 24 hours. Medium was aspirated from all wells of assay plates prior to fixation and permeabilization with ice cold (−20° C.) methanol (90 μL/well) for ten minutes. Plates were rinsed with PBS three times on BioTek ELx405. PBS was removed with a final aspiration, and Odyssey blocking buffer (50 μL/well) was added to each well and incubated for one hour at RT. Primary antibody solution was prepared (anti-trimethyl-MEKK2 at 1:600 dilution plus mouse anti-flag antibody at 1:10,000 dilution in diluent (Odyssey Blocking buffer+0.1% Tween 20)) and 20 μL per well was dispensed using the Multidrop Combi. Assay plates were then sealed with foil, and incubated overnight at 4° C. Plates were washed five times with PBS-Tween (1×) on Biotek ELx405 and blotted on paper towel to remove excess reagent.
First, the ratio for each well was determined by:
Each plate included fourteen control wells of DMSO only treatment (Minimum Inhibition) as well as fourteen control wells for maximum inhibition (Background). The average of the ratio values for each control type was calculated and used to determine the percent inhibition for each test well in the plate. Reference compound was serially diluted two-fold in DMSO for a total of nine test concentrations, beginning at 40 μM. Percent inhibition was calculated (below).
Non-linear regression curves were generated to calculate the IC50 and dose-response relationship using triplicate wells per concentration of compound.

The target in test [2] is T1, SMYD3. Nature of the test: SMYD3 biochemical assay (SMYD3 enzyme assay on MEKK2 protein substrate, 3H-SAM scintillation proximity assay). As to conditions: read-out: SMYD3 Biochem IC50. In a few lines:
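Native full-length human SMYD3, expressed in E. coli, was preincubated with compound for 30 min at room temperature in 25 mM Tris-Cl pH 8.0, 1 mM TCEP, 0.005% BSG and 0.005% Tween 20. ³H-SAM plus GST-MEKK2 then started the reaction. It was stopped with unlabeled SAM (100 uM final), and methylated MEKK2 was read by SPA.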

[3] abbreviates: Table 3A, average of n = 1 to n = 50, read-out: SMYD3 cell IC50.
Setting [4] is: Table 3A, average of n = 1 to n = 50.

T1 sequence (Q9H7B4 whole entry): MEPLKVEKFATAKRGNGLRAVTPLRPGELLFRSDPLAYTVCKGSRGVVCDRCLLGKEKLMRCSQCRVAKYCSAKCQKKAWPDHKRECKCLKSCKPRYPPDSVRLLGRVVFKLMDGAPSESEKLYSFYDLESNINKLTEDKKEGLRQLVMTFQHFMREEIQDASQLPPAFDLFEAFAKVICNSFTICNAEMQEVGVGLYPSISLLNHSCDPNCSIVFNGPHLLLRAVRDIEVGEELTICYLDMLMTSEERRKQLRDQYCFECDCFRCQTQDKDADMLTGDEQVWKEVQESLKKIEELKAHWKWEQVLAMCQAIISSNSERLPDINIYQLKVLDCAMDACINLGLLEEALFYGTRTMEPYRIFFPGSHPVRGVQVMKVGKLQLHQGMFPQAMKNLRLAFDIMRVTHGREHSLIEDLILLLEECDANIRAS

With `O=C1Cc2cc(C(=O)N[C@H]3C[C@H]4CC[C@@H](C3)N4S(=O)(=O)CC3CCN(CCCC(F)(F)F)CC3)c(Cl)cc2N1` [Cpd. No. 595, 6-chloro-2-oxo-N-((1S,3r,5R)-8-((1-(4,4,4-trifluorobutyl)piperidin-4-yl)methylsulfonyl)-8-aza-bicyclo[3.2.1]octan-3-yl)indoline-5-carboxamide], the values for the IC50 at SMYD3 [1] (setting [3]) and on SMYD3 [2] (setting [4]) were 0.0361 µM and 0.00354 µM, respectively.
On the same counts, the results for `O=C(N[C@H]1C[C@H]2CC[C@@H](C1)N2S(=O)(=O)CC1CCNCC1)c1ccc2[nH]c(=O)oc2c1` [Cpd. No. 601, 2-oxo-N-((1R,3r,5SR)-8-(piperidin-4-ylmethylsulfonyl)-8-aza-bicyclo[3.2.1]octan-3-yl)-2,3-dihydrobenzo[d]oxazole-6-carboxamide Hydrochloride] are 4.54 µM and 0.00521 µM.
`CCc1cc(C(=O)N[C@H]2C[C@H]3CC[C@@H](C2)N3S(=O)(=O)N2CCC(N)CC2)ns1` [Cpd. No. 610, N-[(1R,3r,5S)-8-(4-aminopiperidine-1-sulfonyl)-8-azabicyclo[3.2.1]octan-3-yl]-5-ethyl-1,2-thiazole-3-carboxamide Hydrochloride]: the IC50 on SMYD3 [1] (setting [3]) is 0.216 µM; on SMYD3 [2] (setting [4]), 0.0238 µM.
For `NC1CCC(S(=O)(=O)N2[C@@H]3CC[C@H]2C[C@@H](NC(=O)c2ccc4c(c2)OC(F)(F)O4)C3)CC1` (stereo partly drawn) [Cpd. No. 622, N-((1R,3r,5S)-8-(4-aminocyclohexylsulfonyl)-8-aza-bicyclo[3.2.1]octan-3-yl)-2,2-difluorobenzo[d][1,3]dioxole-5-carboxamide Trifluoroacetate], the IC50 worked out at 1.08 µM on SMYD3 [1] (setting [3]) and 0.131 µM at SMYD3 [2] (setting [4]).
For `C[C@H]1Oc2ccc(C(=O)N[C@H]3C[C@H]4CC[C@@H](C3)N4S(=O)(=O)CC3CCNCC3)cc2NC1=O` [Cpd. No. 625, (2R)-2-methyl-3-oxo-N-[(1R,3r,5S)-8-[(piperidin-4-ylmethane)sulfonyl]-8-azabicyclo[3.2.1]octan-3-yl]-3,4-dihydro-2H-1,4-benzoxazine-6-carboxamide Hydrochloride], the IC50 at SMYD3 [1] (setting [3]) was not below 10 µM; at SMYD3 [2] (setting [4]), 0.185 µM.
As to `C[C@@H](N)CC(=O)N[C@H]1CC[C@H](NC(=O)c2ccc3c(c2)CC(=O)N3)CC1` [compound 453, N-((1r,4r)-4-((R)-3-aminobutanamido)cyclohexyl)-2-oxoindoline-5-carboxamide], the IC50 was more than 40 µM on SMYD3 [1] (read-out: SMYD3 Cell IC50) and 0.26 µM at SMYD3 [2].
On to `NCCC(=O)N[C@H]1CC[C@H](NC(=O)c2cc3c(cc2Cl)NC(=O)C3)CC1` [compound 491, N-((1r,4r)-4-(3-aminopropanamido)cyclohexyl)-6-chloro-2-oxoindoline-5-carboxamide], for which the IC50 on SMYD3 [1] (read-out: SMYD3 Cell IC50) was more than 40 µM; at SMYD3 [2] it was 0.15 µM.
For `N[C@H]1CC[C@H](S(=O)(=O)N2[C@@H]3CC[C@H]2C[C@@H](NC(=O)c2ccc4c(c2)CC(=O)N4)C3)CC1` [compound 575, N-((1R,3R,5S)-8-(((1r,4R)-4-aminocyclohexyl)sulfonyl)-8-azabicyclo[3.2.1]octan-3-yl)-2-oxoindoline-5-carboxamide], the IC50 at SMYD3 [1] (setting [3]) was found to be 2.17 µM; at SMYD3 [2], 0.00044 µM.
Turning to `NC1CCN(S(=O)(=O)N2[C@@H]3CC[C@H]2C[C@@H](NC(=O)c2cc4c(cc2F)NC(=O)C4)C3)CC1` [compound 576, N-((1R,3r,5S)-8-((4-aminopiperidin-1-yl)sulfonyl)-8-azabicyclo[3.2.1]octan-3-yl)-6-fluoro-2-oxoindoline-5-carboxamide], the IC50 on SMYD3 [1] (setting [3]) came out at 0.525 µM; at SMYD3 [2] (setting [4]), 0.00049 µM.
For the molecule `CN1CCC(CS(=O)(=O)N2[C@@H]3CC[C@H]2C[C@@H](NC(=O)c2ccc4c(c2)CC(=O)N4)C3)CC1` [compound 577, N-((1R,3r,5S)-8-(((1-methylpiperidin-4-yl)methyl)sulfonyl)-8-azabicyclo[3.2.1]octan-3-yl)-2-oxoindoline-5-carboxamide], the IC50 was 0.481 µM on SMYD3 [1] (setting [3]) and 0.00067 µM at SMYD3 [2].
On the same counts, the results for `NC1CCN(S(=O)(=O)N2[C@@H]3CC[C@H]2C[C@@H](NC(=O)c2ccc4c(c2)CC(=O)N4)C3)CC1` [compound 578, N-((1R,3r,5S)-8-((4-aminopiperidin-1-yl)sulfonyl)-8-azabicyclo[3.2.1]octan-3-yl)-2-oxoindoline-5-carboxamide] are 0.854 µM and 0.00068 µM.
`NC1CCN(S(=O)(=O)N2[C@@H]3CC[C@H]2C[C@@H](NC(=O)c2cc4c(cc2Cl)NC(=O)C4)C3)CC1` [compound 579, N-((1R,3r,5S)-8-((4-aminopiperidin-1-yl)sulfonyl)-8-azabicyclo[3.2.1]octan-3-yl)-6-chloro-2-oxoindoline-5-carboxamide]: the IC50 came out at 1.13 µM at SMYD3 [1] (setting [3]) and 0.00081 µM at SMYD3 [2] (setting [4]).
With `C[C@H]1C[C@@H](NC(=O)c2ccc3c(c2)CC(=O)N3)CCN1S(=O)(=O)N1CCC(N)CC1` [compound 580, N-((2S,4S)-1-((4-aminopiperidin-1-yl)sulfonyl)-2-methylpiperidin-4-yl)-2-oxoindoline-5-carboxamide], the IC50 on SMYD3 [1] (setting [3]) is 1.64 µM; at SMYD3 [2] (setting [4]), 0.0009 µM.
On the same counts, the results for `O=C1Cc2cc(C(=O)N[C@H]3C[C@H]4CC[C@@H](C3)N4S(=O)(=O)CC3CCN(CCCO)CC3)ccc2N1` [compound 581, N-((1R,3r,5S)-8-(((1-(3-hydroxypropyl)piperidin-4-yl)methyl)sulfonyl)-8-azabicyclo[3.2.1]octan-3-yl)-2-oxoindoline-5-carboxamide] are 1.67 µM and 0.00095 µM.
In the same order, the values of `C[C@H]1C[C@@H](NC(=O)c2cc3c(cc2Cl)NC(=O)C3)CCN1S(=O)(=O)N1CCC(N)CC1` [compound 582, N-((2S,4S)-1-((4-aminopiperidin-1-yl)sulfonyl)-2-methylpiperidin-4-yl)-6-chloro-2-oxoindoline-5-carboxamide] are 0.814 µM and 0.00098 µM.
In the same order, the values of `N[C@H]1CC[C@H](S(=O)(=O)N2[C@@H]3CC[C@H]2C[C@@H](NC(=O)c2cc4c(cc2Cl)NC(=O)C4)C3)CC1` [compound 583, N-((1R,3R,5S)-8-(((1r,4R)-4-aminocyclohexyl)sulfonyl)-8-azabicyclo[3.2.1]octan-3-yl)-6-chloro-2-oxoindoline-5-carboxamide] are 1.51 µM and 0.0011 µM.
`C[C@H]1CC(NC(=O)c2ccc3c(c2)CC(=O)N3)CCN1S(=O)(=O)c1ccc(C(C)(C)N)cc1` (stereo partly drawn) [compound 584, N-((2S)-1-((4-(2-aminopropan-2-yl)phenyl)sulfonyl)-2-methylpiperidin-4-yl)-2-oxoindoline-5-carboxamide]: the IC50 on SMYD3 [1] (setting [3]) is 0.653 µM; on SMYD3 [2] (setting [4]) it was 0.00147 µM.
With `O=C1Cc2cc(C(=O)N[C@H]3C[C@H]4CC[C@@H](C3)N4S(=O)(=O)CC3CCN(CCCO)CC3)c(Cl)cc2N1` [compound 585, 6-chloro-N-((1R,3r,5S)-8-(((1-(3-hydroxypropyl)piperidin-4-yl)methyl)sulfonyl)-8-azabicyclo[3.2.1]octan-3-yl)-2-oxoindoline-5-carboxamide], the IC50 on SMYD3 [1] (setting [3]) is 0.764 µM; on SMYD3 [2] (setting [4]), 0.00173 µM.
